Source: US20250282799A1, “SUBSTITUTED PYRIDO[4,3-d]PYRIMIDINES AS KRAS MODULATORS” (Alterome Therapeutics, Inc., priority 2023, published 2025)
pIC50: −log10 of the molar value.

How the values were obtained:
[1] = test system: KRAS G12V dependent lung adenocarcinoma cell line, NCI-H441; experiment: Cellular pERK (Thr202/Tyr204) FRET/HTRF assay; format: cell-based; conditions: Homo sapiens
Procedure, shortened: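 Adherent NCI-H441 cells, plated the previous night, receive test compound for one hour at 37 °C. They are then lysed with a buffer containing phosphatase inhibitors and incubated at room temperature with Eu3+-cryptate and d2 labelled anti-pERK antibodies. HTRF signal gives IC50 by curve fitting.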

[2] = Pharmacokinetic evaluation, single dosing (oral and intravenous) in rats; format: in vivo, male Sprague-Dawley rats; parameters: unit not given here; conditions: rat, plasma
Procedure: Pharmacokinetic profile for test compound was measured by single dosing in male Sprague-Dawley rats. Animal weights were typically over 200 grams, and animals were allowed to acclimate to their new environment for at least 3 days prior to the initiation of any studies. One set of animals was dosed intravenous with test compound, 2 mg/kg in 20% PEG400, 10% HS-15 Solutol, 70% 50 mM citrate buffer (pH 4.0). Intravenous dosing solution concentration was 1.0 mg/mL. Time of blood sampling was 5 minutes, 15 minutes, 30 minutes, 1 hour, 2 hours, 4 hours, 8 hours, and 24 hours following intravenous dosing. Another set of animals was dosed orally with test compound, 30 mg/kg in 20% PEG400, 10% HS-15 Solutol, 70% 50 mM citrate buffer (pH 4.0). Oral dosing solution concentration was 3.0 mg/mL. Time of blood sampling was 15 minutes, 30 minutes, 1 hour, 2 hours, 4 hours, 8 hours, and 24 hours following oral dosing. Blood samples (˜0.2 mL/sample) were collected via jugular vein and placed in tubes containing Heparin-Na. The blood samples in tubes were mixed and then placed on wet ice prior to centrifugation for plasma. The blood samples were centrifuged at 4000 g for 5 minutes at 4° C. to obtain plasma. The obtained plasma was separated and stored frozen at approximately −80° C.
All the plasma samples were analyzed using a Shimadzu (DGU-405) HPLC with an API 6500+MS/MS system following the manufacturer's instructions. All the analytes were detected with positive-mode electrospray ionization (ES+). A standard curve for each test compound was generated and used to measure test compound concentrations in the rat plasma samples. Based on the time course sampling, an area under the curve (AUC) was calculated for the oral group and intravenous group. The percentage of rat bioavailability is calculated based on the equation shown below.
where F is bioavailability, AUCPO is area under curve of oral dosing, AUCIV is area under curve of intravenous dosing, DoseIV is the intravenous dose and DosePO is the oral dose. The oral dosing for the experiments presented in Table 5 was performed at 10 mg/kg unless noted otherwise.

[3] = NCI-H441, cellular pERK (Thr202/Tyr204) HTRF, NCI-H441 cells
[4] = NCI-H441, pERK HTRF, NCI-H441 cells (KRAS G12V)

| Structure (SMILES) | pIC50 [1, 3] | IV (dose 2 mg/kg) (AUC/D) (h*mg/mL) [2] | PO (AUC/D) (h*mg/mL), dose 30 mg/kg ([2]; oral, dose 30 mg/kg) | PO (dose 10 mg/kg) (AUC/D) (h*mg/mL) ([2]; oral) | pIC50 [1, 4] |
| --- | --- | --- | --- | --- | --- |
| [2H]C([2H])(Oc1nc(N2CCOC[C@H]3[C@H](F)[C@H]32)c2cnc(-c3cc(O)cc4ccc(F)c(C#C)c34)c(F)c2n1)[C@@]12CCCN1C[C@H](F)C2 [Example 217, 5-Ethynyl-6-fluoro-4-(8-fluoro-4-((1S,7S,8S)-8-fluoro-5-oxa-2-azabicyclo[5.1.0]octan-2-yl)-2-(((2R,7aS)-2-fluorotetrahydro-1H-pyrrolizin-7a(5H)-yl)methoxy-d2)pyrido[4,3-d]pyrimidin-7-yl)naphthalen-2-ol] | > 7.30 | 143 | 0.5 | – | – |
| [2H]C([2H])(Oc1nc(N2CCOC[C@H]3[C@H](F)[C@H]32)c2cnc(-c3cc(N)cc4ccc(Cl)c(C#C)c34)c(F)c2n1)[C@@]12CCCN1C[C@H](F)C2 [Example 267, 6-Chloro-5-ethynyl-4-(8-fluoro-4-((1S,7S,8S)-8-fluoro-5-oxa-2-azabicyclo[5.1.0]octan-2-yl)-2-(((2R,7aS)-2-fluorotetrahydro-1H-pyrrolizin-7a(5H)-yl)methoxy-d2)pyrido[4,3-d]pyrimidin-7-yl)naphthalen-2-amine] | > 7.30 | 1066 | – | 97 | – |
| [2H]C([2H])(Oc1nc(N2CCCO[C@H]3C(F)[C@H]32)c2cnc(-c3cc(N)cc4ccc(F)c(C#C)c34)c(F)c2n1)[C@@]12CCCN1C[C@H](F)C2 (stereo in doubt) [Example 89, 5-Ethynyl-6-fluoro-4-(8-fluoro-4-((1R,7S,8R)-8-fluoro-2-oxa-6-azabicyclo[5.1.0]octan-6-yl)-2-(((2R,7aS)-2-fluorotetrahydro-1H-pyrrolizin-7a(5H)-yl)methoxy-d2)pyrido[4,3-d]pyrimidin-7-yl)naphthalen-2-amine] | – | 323 | – | 22 | > 7.30 |
| [2H]C([2H])([2H])Oc1c(F)ccc2cc(N)cc(-c3ncc4c(N5CCCO[C@H]6[C@H](F)[C@H]65)nc(OC([2H])([2H])[C@@]56CCCN5C[C@H](F)C6)nc4c3F)c12 [Example 91, 6-Fluoro-4-(8-fluoro-4-((1R,7S,8R)-8-fluoro-2-oxa-6-azabicyclo[5.1.0]octan-6-yl)-2-(((2R,7aS)-2-fluorotetrahydro-1H-pyrrolizin-7a(5H)-yl)methoxy-d2)pyrido[4,3-d]pyrimidin-7-yl)-5-(methoxy-d′3) naphthalen-2-amine] | – | 609 | – | 142 | > 7.30 |
